Data on one sequence can be found in patent US20090275503A1, “DIASTEREOMERIC PEPTIDES FOR MODULATING T CELL IMMUNITY” (Yeda Research and Developent Co., Ltd. at the Weizman …, priority 2005, published 2009).

Non-standard residues stand in square brackets, D forms with d. No end group written: not given here.

One data set deals with TCR. The experiment in a line: Fluorescence microscopy: co-localization and fluorescence energy transfer with TCR on activated A2b T cells. The class given is binding, rat. As for the experimental part: Activated A2b T cells (van Eden et al., 1988) (10^5 cells/sample) were incubated in 100 μl of PBS containing Para-formaldehyde 4% for 15 min on ice. The samples were then washed with cold PBS and centrifuged for 7 min at 1100 rpm. PBS containing BSA 1% was then added at room temperature to prevent non-specific binding. After 30 min FITC-labeled antibody against TCR was added at dilution of 1:100 and incubated for 2.5 hr. For co-localization of TCR with the peptide, Rhodamine 2D-CP was added at a final concentration of 1 μM (stock in DMSO) and incubated for 5 min. Sample were then washed once with PBS and loaded on a microscope slide.
The cells were then observed under a fluorescent confocal microscope. […] Fluorescence data was collected from 505-525 nm. […] Fluorescence data was collected from 560 nm and up.
Fluorescence energy transfer between the FITC (donor) and rhodamine (acceptor) was detected as an increase in FITC fluorescence in an area where the rhodamine probe was bleached. […] To verify that the increase in FITC fluorescence is not due to auto fluorescence, bleaching was performed using the 488 nm laser first and only then at 543 nm. […]
To confirm these co-localization results, the inventors performed fluorescence energy transfer experiments between Rhodamine 2D-CP and αTCR-FITC. […] To rule out auto-fluorescence as a source of increased signal in the […] range, two controls were used. […]

For another data set, the system named is rat TCR. The experiment in a line: Co-immunoprecipitation of fluorescence-labeled peptides with TCR molecules. The following applies: Rho-labeled peptides, activated A2b T cells. The class given is binding. As for the experimental part:
Activated A2b T cells (2×10^6) were cultured for 1 hr at 37° C. in the presence of CP or 2D-CP (25 μg/ml), or 2G-CP, and lysed for 15 min on ice in 0.1 ml lysis buffer (Adachi et al., 1996). Insoluble material was removed by centrifugation at 10.000 g for 10 min at 4° C. The lysate was then incubated overnight with Protein A-plus Agarose beads (Santa Cruz Biotechnology Inc., Santa Cruz, Calif., USA) bound to antibodies to the rat TCR or MHC class 1. The antibodies reactive against the rat TCR (clone R73) or HSP60 (clone LKI) were purified from the respective hybridomas at our lab; antibodies to rat CD28, actin and the rat MHC class 1 were purchased from Serotec (Oxford, UK). After an overnight incubation at 4° C., the beads were washed with lysis buffer, boiled for 10 minutes and the protein supernatant run in a 4-20% SDS-PAGE. The presence of co-immunoprecipitated peptide was detected by the Typhoon 9400 variable mode imager.
Next, co-immunoprecipitation experiments were performed. The affinity of the TCR/CP, the TCR/2D-CP and TCR/2G-CP interactions were compared by performing a series of co-precipitation experiments using different concentrations of Rho-labeled CP, 2D-CP and 2G-CP peptides.

A further data set relates to LNC from Mt primed rats. The experiment in a line: T-cell proliferation of LNC from Mt-immunized rats activated with PPD or Mt176-90 (Part A). The class given is cell-based, rat.
Data set [1] has as its system Lewis rats. The data set can be described thus: Adjuvant arthritis (AA) in Lewis rats (Part A). The class given is in vivo, rat. As for the experimental part:
To test the effect of CP on T-cell activation in vivo, the experimental T-cell mediated autoimmune disease adjuvant arthritis (AA) was used. AA was induced by injecting 50 μl of Mt suspended in IFA (10 mg/ml) at the base of the tail. At the time of AA induction, each rat also received 100 μg of all-L CP, 2D-CP or 2G CP control peptide (or PBS) dissolved in 50 μl of IFA and mixed with Mt/IFA used to induce AA. The day of AA induction was designated as day 0. Disease severity was assessed by direct observation of all 4 limbs in each animal. A relative score between 0 and 4 was assigned to each limb, based on the degree of joint inflammation, redness and deformity; thus the maximum possible score for an individual animal was 16 (Quintana et al., 2002). The mean AA score (±SEM) is shown for each experimental group. Arthritis was also quantified by measuring hind limb diameter with a caliper. Measurements were taken on the day of the induction of AA and 26 days later (at the peak of AA); the results are presented as the mean±SEM of the difference between the two values for all the animals in each group. The person who scored the disease was blinded to the identity of the groups.
Next, the contribution of the secondary structure and the side-chains to the inhibitory effects of CP on T cell activation In vivo was analyzed, using the experimental autoimmune disease Adjuvant Arthritis (AA). Immunization of Lewis rats with Mt triggers AA, an autoimmune disease driven by Mt-specific T cells that cross-react with self-antigen (Holoshitz et al., 1984; Holoshitz et al., 1983). PPD and Mt176-90 are targeted by the arthritogenic T-cell response (Anderton et al., 1994); indeed immunomodulatory therapies that inhibit the progression of arthritis have been associated with a decreased T cell response to PPD and Mt176-90 and with a diminished delayed type hypersensitivity (DTH) response to PPD (van Eden et al., 1985).

For data set [2], the system named is Lewis rats. The data set can be described thus: Delayed type hypersensitivity to PPD in AA rats (Part A). The conditions noted are these: 16 days after AA induction, ear thickness 48 hr after PPD. It counts as in vivo, rat. As for the experimental part: Twenty μl of PPD (0.5 mg/ml in PBS) were injected intradermally into the pinna of the right ear of each rat on day 16 after AA induction; 20 μl of sterile PBS were injected in the left ear as control. The thickness of the ear was measured 48 hr later using a vernier caliper and expressed as the difference between the right and the left ear (Quintana et al., 2005).

In another data set the test system is target cells. The experiment in a line: Cytotoxic effect on the target cells (Part A). The conditions noted are these: incubated with the target cells.

“GLRILLLKV [2D-CP] (GL[dR]ILLL[dK]V-NH2; also: rhodamine label, position not given here)”: in the data set on TCR (rhodamine-labeled peptide 1 μM, αTCR-FITC, activated A2b T cells), the “Co-localization with the TCR on the T-cell membrane” value was “co-localizes with the TCR”. The “Fluorescence energy transfer between rhodamine peptide and αTCR-FITC after bleaching at 543 nm” value with TCR (rhodamine-labeled peptide, point bleach 6 sec) was “significant increase in the fluorescence of the αTCR-FITC”. Besides, the “Co-precipitation with the TCR” value in the data set on rat TCR is listed as “can be co-precipitated with the TCR”. For the same sequence, the “Inhibition of T-cell proliferation to PPD and to Mt176-90” value in the data set on LNC from Mt primed rats (LNC, 72 hr, 3H-thymidine incorporation) was “inhibited T-cell proliferation to PPD and to Mt176-90 in a dose-dependent manner”. Moreover, the “Inhibition of T-cell proliferation compared with all-L CP” value in the data set on LNC from Mt primed rats (at lower concentrations, p<0.02 (FIG. 3B)) is “somewhat greater”. For the same sequence, in the data set on Lewis rats [1] (100 μg peptide per rat at AA induction, maximum possible score 16), the “Mean maximum AA score” value worked out at 6.6±0.7. Further, the “Effect on adjuvant arthritis (clinical score and paw swelling)” value with Lewis rats [1] (100 μg peptide per rat with Mt at the time of AA induction) is recorded as “significantly milder arthritis”. The “Further decrease in the AA score” value in the data set with Lewis rats [1] (dose increased to 900 μg per rat) worked out at 25%. Further, the “Improvement in paw swelling” value with Lewis rats [1] (dose increased to 900 μg per rat, day 26) was found to be 50%. Besides, the “Reduction in the DTH response to PPD” value with Lewis rats [2] was found to be 51%. For the same sequence, the Cytotoxic effect result in the data set with target cells is “None of the peptides (all-L CP, 2D-CP or 2G CP) had a cytotoxic effect”.
